Source: ChEMBL document CHEMBL6092221, “Discovery of a Novel Macrocyclic Noncovalent CDK7 Inhibitor for Cancer Therapy” (J Med Chem, 2024)
≈ marks a conversion by molar mass, not a printed value.

Assays:
[1] = AUC(0 to t) in human HCC70 cells xenografted in female nu/nu mouse plasma at 10 mg/kg, po administered once daily; format: ADME, organism-based
[2] = biological target: Cytochrome P450 3A4 (Homo sapiens, UniProt P08684); assay: Inhibition of CYP3A4 (unknown origin); format: ADME
[3] = Clearance in mouse at 1 mg/kg, iv; format: ADME, organism-based; conditions: in vivo
[4] = Cmax in Sprague-Dawley rat at 300 mg/kg, po; format: ADME, organism-based; conditions: in vivo
[5] = biological target: CDK18/Cyclin Y (Homo sapiens, UniProt Q07002+Q8ND76); assay: Inhibition of CDK18/Cyclin Y (unknown origin); format: protein-complex assay
[6] = AUC(0 to t) in dog at 0.2 mg/kg, iv; format: ADME, organism-based, Canis lupus familiaris; conditions: in vivo
[7] = Solubility of compound at pH 7.4; format: physicochemical; conditions: buffer
[8] = Half life in human HCC70 cells xenografted in female nu/nu mouse plasma at 10 mg/kg, po administered once daily; format: ADME, organism-based
[9] = Metabolic stability in human liver microsomes assessed as intrinsic clearance; format: ADME, Microsome; conditions: read-out: CLH
[10] = biological target: Cytochrome P450 2D6 (Homo sapiens, UniProt P10635); assay: Inhibition of CYP2D6 (unknown origin); format: ADME
[11] = Oral bioavailability in female Balb/c nude mouse at 5 mg/kg; format: ADME, organism-based; conditions: in vivo
[12] = Half life in Sprague-Dawley rat at 100 mg/kg, po; format: ADME, organism-based; conditions: in vivo
[13] = tested on: OVCAR-3; assay: Antitumor activity against human OVCAR-3 cells xenografted in female Balb/c nude mouse assessed as tumor growth inhibition at 10 mg/kg, po administered once daily and measured on day 22; format: functional; conditions: OVCAR-3, 528 h, time 22 day, read-out: TGI
[14] = Drug concentration in rat plasma at 5 mg/kg, po measured after 2 hrs; format: ADME, organism-based
[15] = biological target: Cyclin-dependent kinase 4/cyclin D1 (Homo sapiens, UniProt P11802); assay: Inhibition of CDK4/CyclinD1 (unknown origin); format: protein-complex assay
[16] = Toxicity in female Balb/c nude mouse xenografted with human OVCAR-3 cells assessed as body weight loss at 2 to 20 mg/kg, po administered once daily and measured for 3 weeks; format: organism-based; conditions: in vivo, 504 h, dose 2-20 mg/kg
[17] = AUC (0 to t) in human OVCAR-3 cells xenografted in female Balb/c nude mouse plasma at 20 mg/kg, po administered once daily; format: ADME, organism-based
[18] = biological target: Serine/threonine-protein kinase D1 (Homo sapiens, UniProt Q15139); assay: Inhibition of PRKD1 (unknown origin)
[19] = tested on: HCC70; assay: Antitumor activity against human HCC70 cells xenografted in female nu/nu mouse assessed as tumor growth inhibition at 3 mg/kg, po administered once daily and measured for 4 weeks; format: functional; conditions: HCC70, 672 h, read-out: TGI
[20] = Clearance in dog at 0.2 mg/kg, iv; format: ADME, organism-based, Canis lupus familiaris; conditions: in vivo
[21] = AUC(0 to t) in human HCC70 cells xenografted in female nu/nu mouse plasma at 3 mg/kg, po administered once daily; format: ADME, organism-based
[22] = Cmax in Sprague-Dawley rat at 30 mg/kg, po; format: ADME, organism-based; conditions: in vivo
[23] = Half life in human OVCAR-3 cells xenografted in female Balb/c nude mouse plasma at 20 mg/kg, po administered once daily; format: ADME, organism-based
[24] = AUC (0 to t) in human OVCAR-3 cells xenografted in female Balb/c nude mouse plasma at 10 mg/kg, po administered once daily; format: ADME, organism-based
[25] = AUC(0 to 24 hrs) in Sprague-Dawley rat at 100 mg/kg, po; format: ADME, organism-based; conditions: in vivo
[26] = biological target: Serine/threonine-protein kinase TAO1 (Homo sapiens, UniProt Q7L7X3); assay: Inhibition of TAOK1 (unknown origin)
[27] = Half life in rat at 1 mg/kg, iv; format: ADME, organism-based; conditions: in vivo
[28] = biological target: Cyclin-dependent kinase 9 (Homo sapiens, UniProt P50750); assay: Inhibition of CDK9 (unknown origin)
[29] = biological target: Cyclin-dependent kinase 14/Cyclin-Y (Homo sapiens, UniProt O94921); assay: Inhibition of CDK14/Cyclin Y (unknown origin); format: protein-complex assay
[30] = Half life in dog at 0.2 mg/kg, iv; format: ADME, organism-based, Canis lupus familiaris; conditions: in vivo
[31] = Half life in mouse at 5 mg/kg, po; format: ADME, organism-based; conditions: in vivo
[32] = biological target: CDK4/Cyclin D3 (Homo sapiens) (UniProt P11802+P30281); assay: Inhibition of CDK4/Cyclin D3 (unknown origin) at 200 nM relative to control; values are per cent of control
[33] = biological target: Mitogen-activated protein kinase 15 (Homo sapiens) (UniProt Q8TD08); assay: Inhibition of Erk8 (unknown origin) at 200 nM relative to control; values are per cent of control
[34] = biological target: Cyclin-dependent kinase 14/Cyclin-Y (Homo sapiens) (UniProt O94921+Q8ND76); assay: Inhibition of CDK14/Cyclin Y (unknown origin) at 200 nM relative to control; values are per cent of control
[35] = biological target: Cytochrome P450 2C19 (Homo sapiens, UniProt P33261); assay: Inhibition of CYP2C19 (unknown origin); format: ADME
[36] = biological target: Serine/threonine-protein kinase D2 (Homo sapiens, UniProt Q9BZL6); assay: Inhibition of PRKD2 (unknown origin)
[37] = tested on: Mus musculus; assay: In vivo inhibition of CDK2 phosphorylation in human HCC70 cells xenografted in female Balb/c nude mouse administered once daily for 7 days; format: functional, organism-based; conditions: dose 2-10 mg/kg, time 7.0 day
[38] = Clearance in female Balb/c nude mouse at 1 mg/kg, iv; format: ADME, organism-based; conditions: in vivo
[39] = tested on: OVCAR-3; assay: Antitumor activity against human OVCAR-3 cells xenografted in female Balb/c nude mouse assessed as tumor growth inhibition at 20 mg/kg, po administered once daily and measured on day 22; format: functional; conditions: OVCAR-3, 528 h, time 22 day, read-out: TGI
[40] = Cmax in female Balb/c nude mouse at 5 mg/kg, po; format: ADME, organism-based; conditions: in vivo
[41] = biological target: Ribosomal protein S6 kinase alpha-3 (Homo sapiens, UniProt P51812); assay: Inhibition of RSK2 (unknown origin) at 200 nM relative to control; values are per cent of control
[42] = Drug concentration in rat small intestine at 5 mg/kg, po measured after 2 hrs; format: ADME, organism-based; conditions: read-out: Ct
[43] = biological target: Mitogen-activated protein kinase 15 (Homo sapiens, UniProt Q8TD08); assay: Inhibition of Erk8 (unknown origin)
[44] = Half life in human HCC70 cells xenografted in female nu/nu mouse plasma at 1 mg/kg, po administered once daily; format: ADME, organism-based
[45] = Volume of distribution at steady state in female Balb/c nude mouse at 1 mg/kg, iv; format: ADME, organism-based; conditions: in vivo, read-out: Vdss
[46] = AUC (0 to t) in human OVCAR-3 cells xenografted in female Balb/c nude mouse plasma at 5 mg/kg, po administered once daily; format: ADME, organism-based
[47] = AUC(0 to t) in mouse at 5 mg/kg, po; format: ADME, organism-based; conditions: in vivo
[48] = Plasma protein binding in human assessed as unbound fraction; format: ADME, cell-free

Serine/threonine-protein kinase D2, sequence (Q9BZL6 whole entry): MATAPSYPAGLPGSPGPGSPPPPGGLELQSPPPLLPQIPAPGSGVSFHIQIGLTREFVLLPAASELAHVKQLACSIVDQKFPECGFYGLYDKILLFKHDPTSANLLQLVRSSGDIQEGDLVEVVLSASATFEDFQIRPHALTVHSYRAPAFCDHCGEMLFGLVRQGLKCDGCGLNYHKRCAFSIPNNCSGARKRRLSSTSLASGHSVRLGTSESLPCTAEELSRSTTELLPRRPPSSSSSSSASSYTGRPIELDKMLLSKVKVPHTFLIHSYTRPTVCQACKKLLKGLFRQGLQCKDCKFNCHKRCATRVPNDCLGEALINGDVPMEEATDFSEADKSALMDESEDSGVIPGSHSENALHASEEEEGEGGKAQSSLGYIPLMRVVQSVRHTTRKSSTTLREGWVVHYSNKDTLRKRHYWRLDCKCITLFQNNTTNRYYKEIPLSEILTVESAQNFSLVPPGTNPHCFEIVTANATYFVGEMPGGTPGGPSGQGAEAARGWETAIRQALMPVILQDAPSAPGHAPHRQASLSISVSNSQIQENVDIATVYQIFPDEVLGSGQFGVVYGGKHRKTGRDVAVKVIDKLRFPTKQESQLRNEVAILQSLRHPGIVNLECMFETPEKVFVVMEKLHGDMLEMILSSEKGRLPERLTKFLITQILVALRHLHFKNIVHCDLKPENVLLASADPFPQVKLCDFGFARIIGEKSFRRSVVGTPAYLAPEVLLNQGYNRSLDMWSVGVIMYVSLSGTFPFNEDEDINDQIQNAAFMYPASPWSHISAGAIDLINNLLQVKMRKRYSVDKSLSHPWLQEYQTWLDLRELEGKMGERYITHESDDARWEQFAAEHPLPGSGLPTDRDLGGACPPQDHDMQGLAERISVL
Serine/threonine-protein kinase TAO1, sequence (Q7L7X3 whole entry): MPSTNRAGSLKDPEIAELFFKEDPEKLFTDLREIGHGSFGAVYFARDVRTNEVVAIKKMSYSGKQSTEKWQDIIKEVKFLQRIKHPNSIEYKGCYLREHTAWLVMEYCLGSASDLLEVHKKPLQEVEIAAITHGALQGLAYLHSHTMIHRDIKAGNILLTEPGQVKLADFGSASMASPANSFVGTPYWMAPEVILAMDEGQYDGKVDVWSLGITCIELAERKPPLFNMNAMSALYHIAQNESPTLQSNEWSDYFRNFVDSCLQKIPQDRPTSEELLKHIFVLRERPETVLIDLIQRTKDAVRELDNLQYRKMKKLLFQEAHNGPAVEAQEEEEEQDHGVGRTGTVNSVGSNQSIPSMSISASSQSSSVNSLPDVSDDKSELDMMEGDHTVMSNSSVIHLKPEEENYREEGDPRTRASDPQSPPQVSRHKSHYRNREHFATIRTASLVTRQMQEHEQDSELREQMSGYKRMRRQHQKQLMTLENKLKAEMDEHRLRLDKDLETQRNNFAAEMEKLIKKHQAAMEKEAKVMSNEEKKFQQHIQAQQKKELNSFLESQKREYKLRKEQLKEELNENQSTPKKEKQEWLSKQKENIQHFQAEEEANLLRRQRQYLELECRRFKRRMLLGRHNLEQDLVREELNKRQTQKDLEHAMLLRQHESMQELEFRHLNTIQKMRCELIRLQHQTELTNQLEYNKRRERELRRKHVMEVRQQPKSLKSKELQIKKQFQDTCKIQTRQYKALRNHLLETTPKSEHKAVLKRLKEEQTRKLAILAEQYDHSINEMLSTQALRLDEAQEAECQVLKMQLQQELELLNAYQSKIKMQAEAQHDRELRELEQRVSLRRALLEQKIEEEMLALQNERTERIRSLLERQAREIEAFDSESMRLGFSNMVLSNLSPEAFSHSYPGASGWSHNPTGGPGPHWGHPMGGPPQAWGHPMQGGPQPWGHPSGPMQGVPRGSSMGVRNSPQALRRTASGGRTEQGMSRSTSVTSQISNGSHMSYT
Cyclin-dependent kinase 4/cyclin D1, sequence (P11802 whole entry): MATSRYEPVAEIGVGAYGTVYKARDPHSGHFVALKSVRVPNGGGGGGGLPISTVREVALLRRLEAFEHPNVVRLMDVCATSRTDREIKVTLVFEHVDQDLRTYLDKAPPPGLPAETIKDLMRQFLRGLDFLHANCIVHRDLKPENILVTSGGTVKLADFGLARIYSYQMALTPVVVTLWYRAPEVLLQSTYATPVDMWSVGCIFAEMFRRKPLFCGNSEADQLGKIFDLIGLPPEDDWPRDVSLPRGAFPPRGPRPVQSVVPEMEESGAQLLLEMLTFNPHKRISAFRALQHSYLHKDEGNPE
Cyclin-dependent kinase 4/cyclin D1, sequence (P24385 whole entry, further chain): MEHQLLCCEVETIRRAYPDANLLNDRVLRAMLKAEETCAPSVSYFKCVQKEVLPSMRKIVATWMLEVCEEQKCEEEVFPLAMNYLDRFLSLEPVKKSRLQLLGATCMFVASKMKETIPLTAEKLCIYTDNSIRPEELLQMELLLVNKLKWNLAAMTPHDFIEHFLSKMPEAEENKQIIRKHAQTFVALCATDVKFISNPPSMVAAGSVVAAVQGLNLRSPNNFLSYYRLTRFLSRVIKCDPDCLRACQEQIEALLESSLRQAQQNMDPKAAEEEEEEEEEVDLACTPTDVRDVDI
Serine/threonine-protein kinase D1, sequence (Q15139 whole entry): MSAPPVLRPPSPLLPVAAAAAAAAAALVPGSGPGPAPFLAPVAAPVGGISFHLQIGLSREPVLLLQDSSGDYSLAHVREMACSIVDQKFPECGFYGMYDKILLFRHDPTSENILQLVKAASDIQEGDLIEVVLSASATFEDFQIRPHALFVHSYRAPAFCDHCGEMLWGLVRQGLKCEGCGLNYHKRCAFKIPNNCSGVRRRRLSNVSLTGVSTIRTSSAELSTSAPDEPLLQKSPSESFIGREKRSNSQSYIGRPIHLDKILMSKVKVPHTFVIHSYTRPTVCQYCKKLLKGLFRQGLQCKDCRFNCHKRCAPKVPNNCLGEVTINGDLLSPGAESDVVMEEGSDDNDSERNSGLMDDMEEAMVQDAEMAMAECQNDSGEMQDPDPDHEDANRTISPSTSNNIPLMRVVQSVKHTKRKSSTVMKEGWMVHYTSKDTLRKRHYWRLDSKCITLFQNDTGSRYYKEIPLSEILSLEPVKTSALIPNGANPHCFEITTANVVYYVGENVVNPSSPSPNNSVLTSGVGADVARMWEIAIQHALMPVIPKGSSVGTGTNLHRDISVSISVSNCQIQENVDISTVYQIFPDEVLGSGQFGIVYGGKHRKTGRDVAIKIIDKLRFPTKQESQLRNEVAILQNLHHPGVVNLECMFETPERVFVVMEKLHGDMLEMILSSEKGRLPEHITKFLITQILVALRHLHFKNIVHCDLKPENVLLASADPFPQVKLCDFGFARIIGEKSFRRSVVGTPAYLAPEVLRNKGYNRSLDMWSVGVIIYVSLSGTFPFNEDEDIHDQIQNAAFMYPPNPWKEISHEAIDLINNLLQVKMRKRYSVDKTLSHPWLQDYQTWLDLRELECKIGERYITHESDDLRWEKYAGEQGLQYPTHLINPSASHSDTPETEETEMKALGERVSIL
Cytochrome P450 2D6, sequence (P10635 whole entry): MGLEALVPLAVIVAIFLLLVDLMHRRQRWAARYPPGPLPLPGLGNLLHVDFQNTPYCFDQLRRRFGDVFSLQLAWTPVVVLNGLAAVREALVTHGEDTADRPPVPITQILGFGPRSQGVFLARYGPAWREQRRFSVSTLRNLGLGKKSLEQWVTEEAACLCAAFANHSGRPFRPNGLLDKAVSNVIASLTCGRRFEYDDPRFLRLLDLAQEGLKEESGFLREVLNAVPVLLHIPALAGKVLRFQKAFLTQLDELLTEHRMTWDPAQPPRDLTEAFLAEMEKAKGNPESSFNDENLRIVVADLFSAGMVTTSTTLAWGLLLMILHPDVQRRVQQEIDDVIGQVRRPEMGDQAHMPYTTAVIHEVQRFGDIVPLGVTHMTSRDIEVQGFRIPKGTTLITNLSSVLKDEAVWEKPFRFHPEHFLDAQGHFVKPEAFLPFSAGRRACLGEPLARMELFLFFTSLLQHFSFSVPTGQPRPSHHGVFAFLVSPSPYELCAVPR
Cytochrome P450 3A4, sequence (P08684 whole entry): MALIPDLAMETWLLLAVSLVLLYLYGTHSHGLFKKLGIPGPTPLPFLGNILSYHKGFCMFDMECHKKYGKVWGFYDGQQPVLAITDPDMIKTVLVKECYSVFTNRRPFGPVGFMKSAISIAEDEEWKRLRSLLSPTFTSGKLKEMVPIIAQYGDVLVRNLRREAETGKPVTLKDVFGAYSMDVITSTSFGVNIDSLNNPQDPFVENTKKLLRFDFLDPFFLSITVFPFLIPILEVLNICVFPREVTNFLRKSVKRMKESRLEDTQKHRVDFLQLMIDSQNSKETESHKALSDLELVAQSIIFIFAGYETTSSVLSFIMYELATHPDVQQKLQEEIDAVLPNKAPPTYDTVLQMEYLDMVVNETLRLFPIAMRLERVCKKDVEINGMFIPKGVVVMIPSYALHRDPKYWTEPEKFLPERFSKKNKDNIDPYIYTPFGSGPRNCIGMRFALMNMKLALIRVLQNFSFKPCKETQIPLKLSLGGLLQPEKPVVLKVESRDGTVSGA
Mitogen-activated protein kinase 15, sequence (Q8TD08 whole entry): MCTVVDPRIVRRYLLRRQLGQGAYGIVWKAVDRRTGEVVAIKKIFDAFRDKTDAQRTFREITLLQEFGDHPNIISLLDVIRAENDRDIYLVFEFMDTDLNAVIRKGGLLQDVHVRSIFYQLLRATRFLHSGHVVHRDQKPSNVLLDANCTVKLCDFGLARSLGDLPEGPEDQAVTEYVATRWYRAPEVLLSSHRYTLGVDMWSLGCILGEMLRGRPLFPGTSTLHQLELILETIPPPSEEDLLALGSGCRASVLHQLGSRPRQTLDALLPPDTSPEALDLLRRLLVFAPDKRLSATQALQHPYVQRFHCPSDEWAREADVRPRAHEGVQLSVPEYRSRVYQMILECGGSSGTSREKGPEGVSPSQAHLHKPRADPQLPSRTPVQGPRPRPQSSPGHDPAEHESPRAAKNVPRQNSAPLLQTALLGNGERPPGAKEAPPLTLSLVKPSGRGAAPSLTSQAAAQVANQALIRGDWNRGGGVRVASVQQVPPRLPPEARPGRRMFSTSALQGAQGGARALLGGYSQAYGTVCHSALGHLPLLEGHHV
Mitogen-activated protein kinase 15 (Homo sapiens), sequence (Q8TD08 whole entry): as above

Structure (SMILES): CN1CC(F)(F)CCN(C)[C@H]2CC[C@@H](C2)Nc2ncc(C(F)(F)F)c(n2)-c2c[nH]c3c(P(C)(C)=O)c(ccc23)C1=O
- AUC(0-t) [1]: 812 ng·h/mL
- IC50 [2]: 5200 nM
- clearance [3]: 52.6 mL/min/kg
- Cmax [4]: 3310 ng/mL
- IC50 [5]: 4.2 nM
- AUC(0-t) [6]: 3070 ng·h/mL
- solubility [7]: 917 µg/mL (≈ 1530 µM)
- half-life [8]: 1.7 h
- CLint scaled [9]: 19.6 mL/min/kg
- IC50 [10]: 7000 nM
- bioavailability [11]: 78.7%
- half-life [12]: 5.5 h
- inhibition in vivo at 10 mg/kg [13]: 111%
- concentration at 2 h [14]: 68.8 ng/mL
- IC50 [15]: 146 nM
- Activity [16]: Non-toxic
- AUC(0-t) [17]: 3940 ng·h/mL
- IC50 [18]: 23.7 nM
- inhibition in vivo at 3 mg/kg [19]: 120%
- clearance [20]: 1.2 mL/min/kg
- AUC(0-t) [21]: 203 ng·h/mL
- Cmax [22]: 1270 ng/mL
- half-life [23]: 3.4 h
- AUC(0-t) [24]: 1720 ng·h/mL
- AUC(0-t) [25]: 14200 ng·h/mL
- IC50 [26]: 546 nM
- half-life [27]: 1.2 h
- IC50 [28]: 258 nM
- IC50 [29]: 16.1 nM
- half-life [30]: 3.4 h
- half-life [31]: 4.3 h
- residual activity [32]: 17%
- residual activity [33]: 0.85%
- residual activity [34]: 1.3%
- IC50 [35]: 30900 nM
- IC50 [36]: 45.2 nM
- Activity [37]: Dose-dependent-effect
- clearance [38]: 52.6 mL/min/kg
- inhibition in vivo at 20 mg/kg [39]: 111%
- Cmax [40]: 355 ng/mL
- residual activity [41]: 28%
- concentration at 2 h [42]: 3230 ng/g
- IC50 [43]: 7.9 nM
- half-life [44]: 2 h
- Vd [45]: 1.7 L/kg
- AUC(0-t) [46]: 694 ng·h/mL
- AUC(0-t) [47]: 938 ng·h/mL
- fraction unbound [48]: 0.043
